The data set can be described thus: water solubility by ultraviolet (UV) spectrophotometry. Type of data set: physicochemical. The conditions noted are these: at 25 °C, free pesticide, read-out: intrinsic solubility. From the text:
Figure 1: Diagram of a solubility study using ultraviolet (UV) spectrophotometry of Bendiocarb as the concentration of cyclodextrin increases. Figure 2: Graph of differential scanning thermogravimetry (DST) of Bifenthrin alone, cyclodextrin (CD) alone, physical mixture of the two, and inclusion complex formed (encapsulated). Figure 3: Curves of differential thermal analysis (DTA) and thermal gravimetric analysis (TGA) of Tetramethrin alone, cyclodextrin (CD) alone, physical mixture of the two, and different inclusion complexes formed according to methods 1 or 2 and with the indicated stechiometries 1:1 or 2:1. Figure 4: Spectra of Nuclear Magnetic Resonance (1 H NMR) of Acetamiprid alone (a), cyclodextrin (CD) alone (b) and formed inclusion complex (c). Figure 5: Scanning electron photographs (SEM) of the structural change of Tebuconazole once the inclusion complex with cyclodextrin is formed. Figure 6: X-ray diffractograms (XRD) of Imidacloprid alone, cyclodextrin (CD) alone, physical mixture of both and inclusion complex formed (encapsulation). Figure 7: Diagram of the three-dimensional structures of the Acetamiprid-cyclodextrin complex by formation of a single crystal. Figure 8: Structural modelling by means of the program MACROMODEL of the Acetamiprid-cyclodextrin dimer. Figure 9: Performance of the Bendiocarb microencapsulation reaction (DSC). […]

Values after ≈ are worked out from the molar mass of the structure shown.

Regarding `CNC(=O)Oc1cccc2c1OC(C)(C)O2` [Bendiocarb], the solubility amounted to 600 µM (≈ 134 µg/mL).

(Values after patent publication EP2848122A1, “NEW PESTICIDE INCLUSION COMPLEXES, CO[…] COMPLEXES AND THE USE THEREOF AS PESTICIDES” (priority 2012, dated 2013).)
